BindingDB's records for PubMed 1836757 (University of Heidelberg, 1991)

Molecular target: 5-hydroxytryptamine receptor 1A/1B/1D/2C (Homo sapiens, UniProt P08908+P28221+P28222+P28335)
Sequence (P08908 whole entry): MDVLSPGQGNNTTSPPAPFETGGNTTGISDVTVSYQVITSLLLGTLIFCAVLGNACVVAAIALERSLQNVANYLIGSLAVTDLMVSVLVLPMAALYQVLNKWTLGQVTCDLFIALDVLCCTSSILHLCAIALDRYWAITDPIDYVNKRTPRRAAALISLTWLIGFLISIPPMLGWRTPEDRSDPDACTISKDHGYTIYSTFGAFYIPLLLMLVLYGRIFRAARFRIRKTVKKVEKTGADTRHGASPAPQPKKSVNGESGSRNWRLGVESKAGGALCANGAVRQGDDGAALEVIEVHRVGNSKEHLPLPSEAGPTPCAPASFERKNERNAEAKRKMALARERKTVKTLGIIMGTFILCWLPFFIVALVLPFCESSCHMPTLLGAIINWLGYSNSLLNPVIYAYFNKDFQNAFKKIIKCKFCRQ
Sequence (P28222 whole entry): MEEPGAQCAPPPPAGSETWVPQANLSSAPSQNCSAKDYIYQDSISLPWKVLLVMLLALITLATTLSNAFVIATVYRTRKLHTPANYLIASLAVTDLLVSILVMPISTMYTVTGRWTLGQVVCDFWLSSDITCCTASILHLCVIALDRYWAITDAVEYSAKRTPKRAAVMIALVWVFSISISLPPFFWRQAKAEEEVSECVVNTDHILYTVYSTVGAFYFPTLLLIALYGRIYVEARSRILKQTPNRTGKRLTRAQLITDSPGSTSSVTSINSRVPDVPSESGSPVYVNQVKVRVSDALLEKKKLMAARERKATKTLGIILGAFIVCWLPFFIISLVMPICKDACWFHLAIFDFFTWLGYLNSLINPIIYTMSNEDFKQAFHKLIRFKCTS
Sequence (P28221 whole entry): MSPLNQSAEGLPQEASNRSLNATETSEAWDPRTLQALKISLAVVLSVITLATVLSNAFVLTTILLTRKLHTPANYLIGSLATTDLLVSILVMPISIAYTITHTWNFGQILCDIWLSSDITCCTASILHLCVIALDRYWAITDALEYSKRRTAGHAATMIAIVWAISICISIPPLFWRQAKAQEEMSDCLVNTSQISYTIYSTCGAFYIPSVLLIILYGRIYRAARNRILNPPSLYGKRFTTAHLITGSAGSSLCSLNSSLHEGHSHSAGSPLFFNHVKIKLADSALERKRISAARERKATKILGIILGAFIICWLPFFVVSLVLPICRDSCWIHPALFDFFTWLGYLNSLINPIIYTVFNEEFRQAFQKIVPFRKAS
Sequence (P28335 whole entry): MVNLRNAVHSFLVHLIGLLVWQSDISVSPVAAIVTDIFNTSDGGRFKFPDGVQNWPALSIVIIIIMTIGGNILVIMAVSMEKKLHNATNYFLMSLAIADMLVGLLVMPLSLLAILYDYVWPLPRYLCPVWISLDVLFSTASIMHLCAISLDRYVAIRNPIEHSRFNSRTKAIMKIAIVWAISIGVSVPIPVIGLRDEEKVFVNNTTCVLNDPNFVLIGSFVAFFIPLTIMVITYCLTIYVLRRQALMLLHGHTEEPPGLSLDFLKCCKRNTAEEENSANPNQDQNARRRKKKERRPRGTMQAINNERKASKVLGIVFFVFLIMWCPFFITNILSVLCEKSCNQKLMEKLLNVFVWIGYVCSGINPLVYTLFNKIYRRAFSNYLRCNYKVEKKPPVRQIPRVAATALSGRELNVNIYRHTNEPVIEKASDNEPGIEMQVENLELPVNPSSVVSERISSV

CN1C2CCC1CC(OC(=O)c1c[nH]c3ccccc13)C2 (configuration not stated)
Ki: > 10000 nM

CC[C@@H](CO)NC(=O)[C@@H]1C=C2c3cccc4c3c(cn4C)C[C@H]2N(C)C1
Ki: 436 nM
